Test results as given in US8592394B2, “Synthetic derivatives beta glycolipids and compositions thereof for the treatment of pathologic disorders” (Enzo Therapeutics, Inc., priority 2003, dated 2013).

Columns and labels:
[1] = test system: intrahepatic and intrasplenic lymphocytes; test: FACS analysis of intrahepatic and intrasplenic lymphocytes (NKT, CD4, CD8); type: in vivo, mice
Description: (§1) Splenocytes and intrahepatic lymphocytes were isolated as follows: livers and spleens were kept in RPMI-1640+FCS. Then spleens were crushed through a 70 μm nylon cell strainer (Falcon) and centrifuged (1250 rpm for 7 min) for the removal of cell debris. Red blood cells were lysed with 1 ml of cold 155 mM ammonium chloride lysis buffer and centrifuged (1250 rpm for 3 min). Splenocytes were resuspended with 1 ml RPMI+FCS. Cell viability by trypan blue staining was above 90%. For intrahepatic lymphocytes, livers were crushed through a stainless mesh (size 60, Sigma) and the cell suspension was placed in a 50-ml tube for 5 min. Lymphoprep (10 ml, Ficoll, Axis-Shield PoC AS, Oslo, Norway) was placed under similar volume of cell suspension in 50-ml tubes. Tubes were centrifuged at 1800 rpm for 18 min. Cells in the interface were collected and centrifuged at 1800 rpm for 10 min, to obtain a pellet of cells depleted of hepatocytes to a final volume of 250 μl. Approximately 1×10^6 cells/mouse liver, were recovered.
For ConA induced hepatitis experiments, flow cytometry was performed immediately following splenocyte and hepatic lymphocyte isolation using 1×10^6 lymphocytes in 100 μl PBS with 0.1% BSA. To determine the percentage of NKT lymphocytes, FITC anti-mouse CD3 and PE anti-mouse NK1.1 antibodies were used (eBioscience, USA). CD4 and CD8 subsets were detected using FITC anti-mouse CD3 and PE-anti-mouse CD4 or CD8 antibodies. Cells were incubated for 30 min at 4° C. in the dark, washed, and resuspended in 200 μl of PBS with 0.1% BSA. Analytical cell sorting was performed for 1×10^6 cells from each group using a fluorescence-activated cell sorter (FACSTAR plus, Becton Dickinson). Only live cells were counted, and unstained cells served as controls for background fluorescence. Gates were set on the forward and side scatter to exclude dead cells and red blood cells. Data were analyzed using either the Consort 30 two-color contour plot program (Becton Dickinson, Oxnard, Calif.) or the CELLQuest 25 program.
Assessment of the effect of any of the synthetic analogs on the immune response was next determined by analysis of the cytokine serum level of IFNγ in each animal using a commercial “sandwich” ELISA kit, and by FACS analysis of intrahepatic and intrasplenic (peripheral) lymphocytes levels.

TNF-α = test: Serum TNF-α by ELISA in ConA induced hepatitis; type: in vivo, mice; conditions: intraperitoneal
Description: Serum levels of IFN-γ, TGF-β, TNF-α IL-2, IL-4, IL-6, IL-10 and IL-12 were determined by “sandwich” ELISA, using commercial kits (Quantikine, R&D Systems, Minneapolis, Minn., USA). Serum insulin was also determined by “sandwich” ELISA too, using the commercial kit of Mercodia AB (Uppsala, Sweden) according to the manufacturer's instructions.

STAT1 = test: Immunoblot of liver lysates: STAT1 phosphorylation; type: in vivo, mice; conditions: IP
Description: For ConA induced hepatitis experiments spleen and liver lysates were lysed in RIPA buffer containing 50 mM Tris, pH 7.4, 1% NP-40, 150 mM NaCl, 0.1% SDS, 0.5% sodium deoxycholate and protease inhibitors (5 μg/ml, Sigma), with protease and phosphatase (Sigma, Rehovot, Israel).
Lysates were centrifuged twice at 4° C. for 10 minutes in 14000 rpm. Equivalent amounts of lysates (15 μg/lane), determined by Bradford assay (Bio-Rad, Rehovot, Israel), were separated by sodium dodecyl sulfate polyacrylamide gel electrophoresis (SDS-PAGE) and transferred to nitrocellulose membranes.
For ConA induced hepatitis experiments proteins were detected with phospho-specific STAT1-Tyr701, STAT6-Tyr641, STAT1, and STAT6 antibodies from Cell Signaling. β-actin (abcam, UK) was used as a loading control.
Blots were developed with horseradish peroxidase-conjugated secondary antibodies (Jackson Laboratories Bar Harbor, Me.) and Western Blot-Luminol Reagent (Santa Cruz Biotechnology, CA, USA). Cell counting and western Blot quantification was performed using total Lab (Phoretix, USA) software.

fat-associated T cells = test: Flow cytometry of T cell subsets in adipose tissue, stromal vascular cells and spleen of ob/ob mice; type: in vivo; conditions: 45 μg per os daily 4 weeks, vs vehicle
Description: as §1
Adipose tissue (visceral fat pads) was minced and incubated in Krebs-Ringer bicarbonate buffer (3 mL/g adipose tissue) containing 10mM glucose and 2.5% bovine serum albumin, incubated with 840 U/g collagenase type I (Sigma, Rehovot, Israel)) at 37° C. for 1 hour. Cells were filtered twice through chiffon mesh (100 μm) and centrifuged 50 g for 5 min. Floating adipocytes were separated from pelleted S/V fraction. The infranatant fraction was removed and centrifuged at 200 g for five minutes to pellet the S/V cells.
For metabolic syndrome experiments, the following antibodies were used for flow cytometry: anti-CD4-Pacific Blue, anti-CD8-FITC, anti-IL-17-PE, anti CD25-PercP-Cy5.5 and anti FOX3p PE-Cy725 (all from eBioscience, San Diego, Calif.). Surface staining was performed by incubating cells with antibodies and anti-CD16/32 (blocks Fc, eBioscience) at 4° C. in FACS buffer containing PBS and 0.5% BSA, for 30 min. Cells were washed twice with FACS buffer, resuspended in FACS buffer, and analyzed by flow cytometry. Appropriate isotype controls were used in all experiments. Intracellular staining was performed using Foxp3 staining buffer kit (eBioscience, San Diego, Calif.). Cells were incubated with 1 ml Fixation/Permeabilization solution for 50 min, washed twice with Permeabilization buffer and incubated with anti-Foxp3 Ab for 50 min. Cells were then washed twice with Permeabilization buffer and resuspended with FACS buffer. Analysis was performed using a FACSCalibur instrument (Becton Dickinson, San Jose, Calif.) with FCS express V.3 software (DeNovo software, Los Angeles, Calif.).
Therefore, five groups of male C57BL/6 Ob/Ob mice were studied. Mice (6 per group) were fed (per os) daily for 4 weeks with 15 or 45 μg of GC (groups B and C, respectively) and 15 or 45 μg of ALIB-97 (groups D and E, respectively). Control mice (Group A) were administered vehicle only.

[2] = B6 mice, intraperitoneal, 8 h, p<0.05
[3] = B6 mice, oral administration, p<0.05
[4] = ConA induced hepatitis, C57Bl/6 mice, intraperitoneal, low dosage 1 μg/mice

`CCCCCCCCCCCCCC=CC(O)C(CO[C@@H]1OC(CO)[C@@H](O)C(O)C1O)NC(=S)NC12CC3CC(CC(C3)C1)C2` (stereo in doubt) [ALIB-97, N-adamantyl-N′-glucosylsphingosine thiourea] was tested, and the “splenic CD3/NKT cells” value ([1]; B6 mice, intraperitoneal, 8 h, p<0.01) was “significantly reduced”, the “decrease of hepatic CD3/NKT cells” value [1, 2] was “more than 55%” and the “splenic CD3/CD4 cells” value [1, 2] was “significantly reduced”. For the same compound, the “splenic CD3/CD4 cells” value ([1]; B6 mice, intraperitoneal, 20 h) was “not affected”, the “increase of hepatic CD3/CD4 cells” value ([1]; B6 mice, intraperitoneal, 20 h, p=0.01) was 33% and the “hepatic CD3/CD8 lymphocytes” value ([1]; B6 mice, oral administration) was “unaffected”. The “decrease in hepatic CD3/NK1.1 lymphocytes” value ([1]; B6 mice, oral administration, after 8 hours, p<0.05) was 73%, the “increase of splenic CD3/NK1.1 lymphocytes” value [1, 3] was greater than 100% and the “reduction of splenic CD3/CD8 cells” value [1, 3] was 30%. The “reduction of splenic CD3/CD4 cells” value ([1]; B6 mice, oral administration, p=0.07) was 23%, the “decrease in hepatic CD3/CD4 lymphocyte ratio” value ([1]; B6 mice, oral administration, p=0.08) was 20% and the “intrahepatic NKT cell levels” value [1, 4] was “decrease”. The “intrahepatic/peripheral ratio of NKT cells” value [1, 4] was “decrease”, the “peripheral/intrahepatic ratio of the CD4/CD8 ratio” value [1, 4] was “increase” and the “serum TNF-α secretion” value (TNF-α; B6 mice) was “modest effect”. For the same compound, the “serum TNF-α levels” value (TNF-α; CD1d−/− KO mice) was “decreased”, the “serum TNF-α levels” value (TNF-α; Jα18−/− KO mice) was “decreased” and the “STAT1 phosphorylation of Tyr 701 in the liver” value (STAT1; B6 mice) was “increased”. For the same compound, the “STAT1 phosphorylation of Tyr 701 in the liver” value (STAT1; CD1d−/− mice) was “increased”, the “CD4+CD25+FOXP3+ cells, ADIPOCYTES” value (fat-associated T cells) was “↑↑ (↓/↑ and ↓↓/↑↑-p≦0.05 and p≦0.01 respectively)” and the “CD4+CD25+IL17+ cells, SVC” value (fat-associated T cells) was “↑ (↓/↑ and ↓↓/↑↑-p≦0.05 and p≦0.01 respectively)”. The “CD4+FOXP3+ cells, SPLEEN” value (fat-associated T cells) was “↓ (↓/↑ and ↓↓/↑↑-p≦0.05 and p≦0.01 respectively)”, the “CD4+FOXP3+IL17+ cells, ADIPOCYTES” value (fat-associated T cells) was “↓ (↓/↑ and ↓↓/↑↑-p≦0.05 and p≦0.01 respectively)” and the “CD4+IL17+ cells, ADIPOCYTES” value (fat-associated T cells) was “↓ (↓/↑ and ↓↓/↑↑-p≦0.05 and p≦0.01 respectively)”. The “CD8+CD25+ cells, ADIPOCYTES” value (fat-associated T cells) was “↓ (↓/↑ and ↓↓/↑↑-p≦0.05 and p≦0.01 respectively)”, the “CD8+CD25+FOXP3+ cells, SPLEEN” value (fat-associated T cells) was “↑↑ (↓/↑ and ↓↓/↑↑-p≦0.05 and p≦0.01 respectively)” and the “CD8+CD25+FOXP3+ cells, SVC” value (fat-associated T cells) was “↓ (↓/↑ and ↓↓/↑↑-p≦0.05 and p≦0.01 respectively)”. For the same compound, the “CD8+CD25+FOXP3+IL17+ cells, ADIPOCYTES” value (fat-associated T cells) was “↓ (↓/↑ and ↓↓/↑↑-p≦0.05 and p≦0.01 respectively)”, the “CD8+CD25+FOXP3+IL17+ cells, SPLEEN” value (fat-associated T cells) was “↑ (↓/↑ and ↓↓/↑↑-p≦0.05 and p≦0.01 respectively)” and the “CD8+CD25+IL17+ cells, ADIPOCYTES” value (fat-associated T cells) was “↑ (↓/↑ and ↓↓/↑↑-p≦0.05 and p≦0.01 respectively)”. For the same compound, the “CD8+CD25+IL17+ cells, SVC” value (fat-associated T cells) was “↑ (↓/↑ and ↓↓/↑↑-p≦0.05 and p≦0.01 respectively)”, the “CD8+FOXP3+ cells, SPLEEN” value (fat-associated T cells) was “↑↑ (↓/↑ and ↓↓/↑↑-p≦0.05 and p≦0.01 respectively)” and the “CD8+FOXP3+IL17 cells, ADIPOCYTES” value (fat-associated T cells) was “↓↓ (↓/↑ and ↓↓/↑↑-p≦0.05 and p≦0.01 respectively)”. For the same compound, the “CD8+IL17+ cells, ADIPOCYTES” value (fat-associated T cells) was “↓ (↓/↑ and ↓↓/↑↑-p≦0.05 and p≦0.01 respectively)” and the “CD25+FOXP3+ cells, SPLEEN” value (fat-associated T cells) was “↓ (↓/↑ and ↓↓/↑↑-p≦0.05 and p≦0.01 respectively)”.
